Test results: patent EP4001279A1, “NOVEL SPIROPYRROLIDINE DERIVED ANTIVIRAL AGENTS” (Enanta Pharmaceuticals, Inc., priority 2020, dated 2022)

What follows are compounds tested on 229E human corona virus (hCoV) (assay: 229E live virus assay (CPE, ATPlite readout in MRC-5 cells)). Details: Human coronavirus 229E, MRC5, hCoV-229E live virus, MOI 0.05, ATPlite readout, run in duplicate.
Assay type: cell-based, hCoV-229E

Row | Compound | EC50 [nM]
1 | C=C(C)c1ccc2c(c1)[C@@]1(C[C@@H](C#N)N(C(=O)[C@H](CC(C)C)N(C)C(=O)c3cc4c(F)cc(F)cc4[nH]3)C1)C(=O)N2 [Example 498, N-((S)-1-((3R,5'S)-5'-cyano-2-oxo-5-(prop-1-en-2-yl)spiro[indoline-3,3'-pyrrolidin]-1'-yl)-4-methyl-1-oxopentan-2-yl)-4,6-difluoro-N-methyl-1H-indole-2-carboxamide] | < 100
2 | CC(C)C[C@@H](C(=O)N1C[C@]2(C[C@H]1C#N)C(=O)Nc1ccccc12)N(C)C(=O)c1cc2sccc2[nH]1 [Example 209] | < 100
3 | CC(C)C[C@@H](C(=O)N1C[C@]2(C[C@H]1C#N)C(=O)Nc1ccccc12)N(C)C(=O)c1cccc(-c2cccc(Cl)c2)c1 [Example 266] | < 100
4 | CC(C)C[C@@H](C(=O)N1C[C@]2(C[C@H]1C#N)C(=O)Nc1ccccc12)N(C)C(=O)c1ccc(OC2CC2)c(-c2cccnc2)c1 [Example 343] | 100 to 1000
5 | CC(C)C[C@@H](C(=O)N1C[C@]2(C[C@H]1C#N)C(=O)Nc1ccccc12)N(C)C(=O)c1cccc(-c2ccccc2C#N)c1 [Example 278] | < 100
6 | CN(C(=O)Cc1ccncc1)[C@@H](CC(C)(C)F)C(=O)N1C[C@]2(C[C@H]1C#N)C(=O)Nc1ccc(Cl)cc12 [Example 477] | 100 to 1000
7 | CC(C)(C)C[C@H](NC(=O)c1cn(C2CC2)nn1)C(=O)N1C[C@]2(C[C@H]1C#N)C(=O)Nc1ccccc12 [Example 141] | < 100
8 | CN(C(=O)Cc1cnccn1)[C@@H](CC(C)(C)F)C(=O)N1C[C@]2(C[C@H]1C#N)C(=O)Nc1ccc(Cl)cc12 [Example 484] | 100 to 1000
9 | CCCN(C(=O)c1cc2c(F)cccc2[nH]1)[C@@H](CC(C)C)C(=O)N1C[C@]2(C[C@H]1C#N)C(=O)Nc1ccccc12 [Example 98] | 100 to 1000
10 | CN(C(=O)c1cc2c(F)cc(F)cc2[nH]1)[C@@H](CC(C)(C)F)C(=O)N1C[C@]2(C[C@H]1C#N)C(=O)Nc1ccc(Cl)cc12 [Example 455] | < 100
11 | COC(=O)c1ccc2c(c1)[C@@]1(C[C@@H](C#N)N(C(=O)[C@H](CC(C)C)N(C)C(=O)c3cc4c(F)cc(F)cc4[nH]3)C1)C(=O)N2 [Example 501, methyl (3R,5'S)-5'-cyano-1'-(N-(4,6-difluoro-1H-indole-2-carbonyl)-N-methyl-L-leucyl)-2-oxospiro[indoline-3,3'-pyrrolidine]-5-carboxylate] | < 100
12 | CC(C)C[C@@H](C(=O)N1C[C@]2(C[C@H]1C#N)C(=O)Nc1ccccc12)N(C)C(=O)c1cn(-c2ccc(F)cc2)nn1 [Example 283] | < 100
13 | CC(C)C[C@@H](C(=O)N1C[C@]2(C[C@H]1C#N)C(=O)Nc1ccccc12)N(C)C(=O)c1cc(OC2CC2)c2nc(C3CC3)sc2c1 [Example 317] | 100 to 1000
14 | CC(C)C[C@@H](C(=O)N1C[C@]2(C[C@H]1C#N)C(=O)Nc1ccccc12)N(C)C(=O)c1cnc2c(C(F)(F)F)cccc2c1 [Example 268] | < 100
15 | COc1cccc2[nH]c(C(=O)N[C@H](CC(C)(C)C)C(=O)N3C[C@]4(C[C@H]3C#N)C(=O)Nc3ccccc34)cc12 [Example 16] | 100 to 1000
16 | CC(C)C[C@@H](C(=O)N1C[C@]2(C[C@H]1C#N)C(=O)Nc1ccccc12)N(C)C(=O)c1nc2ccccc2[nH]1 [Example 205] | < 100
17 | CC(C)(C)C[C@H](NC(=O)c1cnn(CC(F)(F)F)c1)C(=O)N1C[C@]2(C[C@H]1C#N)C(=O)Nc1ccccc12 [Example 144] | < 100
18 | CN(C(=O)c1cc2c(OC3CC3)cccc2[nH]1)[C@@H](CC(C)(C)C)C(=O)N1C[C@]2(C[C@H]1C#N)C(=O)Nc1ccccc12 [Example 375] | < 100
19 | COc1cccc2[nH]c(C(=O)N(C)[C@@H](COC(C)(C)C)C(=O)N3C[C@]4(C[C@H]3C#N)C(=O)Nc3ccccc34)cc12 [Example 370] | < 100
20 | CC(C)(C)C[C@H](NC(=O)NC1CCCCC1)C(=O)N1C[C@]2(C[C@H]1C#N)C(=O)Nc1ccccc12 [Example 440] | < 100
21 | CC(C)(C)C[C@H](NC(=O)Nc1ccc(F)cc1)C(=O)N1C[C@]2(C[C@H]1C#N)C(=O)Nc1ccccc12 [Example 441] | < 100
22 | Cc1cc2cc(C(=O)N(C)[C@@H](CC(C)C)C(=O)N3C[C@]4(C[C@H]3C#N)C(=O)Nc3ccccc34)cc(OC(F)(F)F)c2nc1C [Example 238] | < 100
23 | CC(C)C[C@@H](C(=O)N1C[C@]2(C[C@H]1C#N)C(=O)Nc1ccccc12)N(C)C(=O)c1ccc2ccncc2c1 [Example 217] | < 100
24 | CC(C)(C)C[C@H](NC(=O)Nc1ccc(F)cc1F)C(=O)N1C[C@]2(C[C@H]1C#N)C(=O)Nc1ccccc12 [Example 436] | < 100
25 | COc1cccc2[nH]c(C(=O)N(C)[C@@H](CC(C)C)C(=O)N3C[C@]4(C[C@H]3C(=O)C(=O)NC3CCCCC3)C(=O)Nc3ccccc34)cc12 [Example 34] | > 1000
26 | COc1cccc2[nH]c(C(=O)N(C)[C@@H](CC3CC3)C(=O)N3C[C@]4(C[C@H]3C#N)C(=O)Nc3ccccc34)cc12 [Example 114] | < 100
27 | CC(C)C[C@@H](C(=O)N1C[C@]2(C[C@H]1C#N)C(=O)Nc1ccccc12)N(C)C(=O)c1cc(F)c2nc(C3CC3)c(C(=O)C(F)(F)F)n2c1 [Example 314] | < 100

Row | Compound | EC50 [nM]
28 | C=CCN(C(=O)OCc1ccccc1)[C@@H](CC(C)C)C(=O)N1C[C@]2(C[C@H]1C#N)C(=O)Nc1ccccc12 [Example 96] | 100 to 1000
29 | CC(C)C[C@@H](C(=O)N1C[C@]2(C[C@H]1C#N)C(=O)Nc1ccccc12)N(C)C(=O)C#Cc1ccccc1 [Example 248] | < 100
30 | CC(C)C[C@@H](C(=O)N1C[C@]2(C[C@H]1C#N)C(=O)Nc1ccccc12)N(C)C(=O)c1ccc2ncccc2c1 [Example 210] | < 100
31 | CC(C)C[C@@H](C(=O)N1C[C@]2(C[C@H]1C#N)C(=O)Nc1ccccc12)N(C)C(=O)c1cc2ccccc2o1 [Example 208] | < 100
32 | Cc1ccc2cc(C(=O)N(C)[C@@H](CC(C)C)C(=O)N3C[C@]4(C[C@H]3C#N)C(=O)Nc3ccccc34)cc(OC3CC3)c2n1 [Example 321] | 100 to 1000
33 | CC(C)C[C@@H](C(=O)N1C[C@]2(C[C@H]1C#N)C(=O)Nc1ccccc12)N(C)C(=O)c1ccc2cccnc2c1 [Example 218] | < 100
34 | CC(C)C[C@@H](C(=O)N1C[C@]2(C[C@H]1C#N)C(=O)Nc1ccccc12)N(C)C(=O)c1nc2cc(Cl)c(Cl)cc2[nH]1 [Example 251] | < 100
35 | CC(C)C[C@@H](C(=O)N1C[C@]2(C[C@H]1C#N)C(=O)Nc1ccccc12)N(C)C(=O)c1ccc2c(Cl)ccnc2c1 [Example 271] | < 100
36 | CC(C)(F)C[C@H](NC(=O)COc1ccc(F)cc1F)C(=O)N1C[C@]2(C[C@H]1C#N)C(=O)Nc1ccc(Cl)cc12 [Example 445] | 100 to 1000
37 | CC(C)C[C@@H](C(=O)N1C[C@]2(C[C@H]1C(O)S(=O)(=O)O)C(=O)Nc1ccccc12)N(C)C(=O)c1cc2c(F)cccc2[nH]1 (stereo partly shown) [Example 30] | < 100
38 | COc1cccc2[nH]c(C(=O)N[C@@H](CC(C)C)C(=O)N3C[C@]4(C[C@H]3C=O)C(=O)N(C)c3ccccc34)cc12 [Example 119] | 100 to 1000
39 | CC(=O)c1ccc2c(c1)[C@@]1(C[C@@H](C#N)N(C(=O)[C@H](CC(C)C)N(C)C(=O)c3cc4c(F)cc(F)cc4[nH]3)C1)C(=O)N2 [Example 499, N-((S)-1-((3R,5'S)-5-acetyl-5'-cyano-2-oxospiro[indoline-3,3'-pyrrolidin]-1'-yl)-4-methyl-1-oxopentan-2-yl)-4,6-difluoro-N-methyl-1H-indole-2-carboxamide] | < 100
40 | CC(C)C[C@@H](C(=O)N1C[C@]2(C[C@H]1C#N)C(=O)Nc1ccccc12)N(C)C(=O)c1nc2c(F)cc(F)c(F)c2[nH]1 [Example 270] | < 100
41 | COc1cccc2[nH]c(C(=O)N[C@@H](CC(C)C)C(=O)N3C[C@]4(C[C@H]3C(=O)O)C(=O)Nc3ccccc34)cc12 [Example 37] | 100 to 1000
42 | CN(C(=O)C(F)(F)c1ccncc1)[C@@H](CC(C)(C)F)C(=O)N1C[C@]2(C[C@H]1C#N)C(=O)Nc1ccc(Cl)cc12 [Example 480] | < 100
43 | CC(C)C[C@@H](C(=O)N1C[C@]2(C[C@H]1C=O)C(=O)Nc1ccccc12)N(C)C(=O)c1cc2c(F)cc(F)cc2[nH]1 [Example 149] | < 100
44 | COc1cccc2[nH]c(C(=O)N(C)[C@@H](CCC(C)C)C(=O)N3C[C@]4(C[C@H]3C#N)C(=O)Nc3ccccc34)cc12 [Example 105] | < 100
45 | COc1cccc2[nH]c(C(=O)N[C@@H](CC(C)C)C(=O)N3C[C@]4(C[C@H]3C(=O)C(=O)NC3CC3)C(=O)Nc3ccccc34)cc12 [Example 31] | 100 to 1000
46 | Cc1cc(C)c2ccc(C(=O)N(C)[C@@H](CC(C)C)C(=O)N3C[C@]4(C[C@H]3C#N)C(=O)Nc3ccccc34)nc2c1O [Example 259] | < 100
47 | CC(C)C[C@@H](C(=O)N1C[C@]2(C[C@H]1C#N)C(=O)Nc1ccccc12)N(C)C(=O)c1cc2ccc(=O)[nH]c2cc1OC1CC1 [Example 254] | < 100
48 | CC(C)C[C@@H](C(=O)N1C[C@]2(C[C@H]1C#N)C(=O)Nc1ccccc12)N(C)C(=O)c1c(Cl)ccc(Cl)c1F [Example 169] | < 100
49 | CC(C)C[C@@H](C(=O)N1C[C@]2(C[C@H]1C#N)C(=O)Nc1ccccc12)N(C)C(=O)c1cc(F)cc(Cl)c1 [Example 173] | < 100
50 | CC(C)C[C@@H](C(=O)N1C[C@]2(C[C@H]1C#N)C(=O)Nc1ccccc12)N(C)C(=O)c1cnn(C(C)(C)C)c1 [Example 352] | < 100
51 | N#C[C@@H]1C[C@@]2(CN1C(=O)[C@H](Cc1ccccc1F)NC(=O)c1cc3c(F)cc(F)cc3[nH]1)C(=O)Nc1ccc(Cl)cc12 [Example 451] | 100 to 1000
52 | CC(C)(C)C[C@H](NC(=O)c1cc(OC(F)F)c2ncccc2c1)C(=O)N1C[C@]2(C[C@H]1C#N)C(=O)Nc1ccccc12 [Example 139] | < 100
53 | Cc1c(C(=O)N(C)[C@@H](CC(C)C)C(=O)N2C[C@]3(C[C@H]2C#N)C(=O)Nc2ccccc23)[nH]c2cc(F)cc(F)c12 [Example 47] | 100 to 1000
54 | CCCN(C(=O)OCc1ccccc1)[C@@H](CC(C)C)C(=O)N1C[C@]2(C[C@H]1C#N)C(=O)Nc1ccccc12 [Example 97] | > 1000

Same assay, conditions: hCoV-229E live virus, MOI 0.05, ATPlite readout, run in duplicate

Row | Compound | EC50 [nM]
55 | CC(C)C[C@@H](C(=O)N1C[C@]2(C[C@H]1C#N)C(=O)Nc1ccccc12)N(C)C(=O)[C@@H]1CCN(C(=O)OC(C)(C)C)C1 [Example 345] | < 100
